# Tests used:
# Formosan termites = experiment: Foraging box bait matrix bioassay, NHA sodium salt (Example 1); assay type: in vivo, Coptotermes formosanus; details: 6 boxes of 2500 termite workers
# Experimental: (§1) For bait matrices with a final concentrations of NHA sodium salt of either 250 ppm or 500 ppm, the following procedure was used. A total of 25 mg or 50 mg, respectively of the NHA sodium salt was weighed using a Mettler balance. The NHA sodium salt complex was placed into a 50 ml sterile screw cap conical tube (#62.547.004; Sarstedt, Newton, N.C.) and dissolved with 40 ml nutritive solution described in Example 2 of U.S. patent application Ser. No. 09/294,499 filed Apr. 20, 1999, hereby incorporated by reference. Under a laminar flow hood, this product was mixed with 27 ml more of sterile nutritional supplement in a 250 ml sterile glass bottle (prepared as reported by M. G. Rojas and J. A. Morales-Ramos, April 2001, “Bait matrix for delivery of chitin synthesis inhibitors to the Formosan subterranean termite [Isoptera: Rhinotermitidae],” J. Econ. Entomol. 94(2) :506-510) hereby incorporated by reference. The bottle was tightly closed with a screw cap and manually shaken for 2 minutes. The mixture was added to 33 g of sterile cellulose as reported by Rojas and Morales-Ramos (2001) supra. The mixture was manually homogenized using a stainless steel spatula. To encase the bait matrix, tubes made of fibrous casing material (#124B; L.E.M. Products, Inc., Miamitown, Ohio) were cut into 150 mm long portions as reported by Rojas and Morales-Ramos (2001) supra. Fifty grams of bait matrix containing NHA sodium salt was compacted into one end of the inlet tube, and the open end and of the inlet tube was closed with a rubber band. The bait casing was placed inside of the foraging box adjacent to a 10 g piece of pine wood, taking care that it was partially covered with sand. Control bait matrix was prepared minus NHA, and presented in the same way as the treatment matrix to Formosan termites taken from three different colonies, with two boxes per locality totaling six boxes of 2500 termites per treatment. (Rojas and Morales-Ramos [2001] supra). All the experimental boxes were maintained under dark conditions at 27±1° C., and 90±2% relative humidity. Observations were done every 72 hours until all the termites died. The time to reach 100% mortality was measured and recorded. Mean comparisons among treatments and control were conducted.
# C. formosanus [1] = experiment: ARS bait matrix bioassay with NHA sodium salt, protocol of Example 1 (Example 2); assay type: in vivo, Coptotermes formosanus
# Experimental: as §1
# N-hydroxynaphthyalimide (NHA) which is commercially available as pure chemical, is dissolved in distilled water using a sterile container; At concentrations of 500 ppm, NHA is effective as bait active ingredient taking a mean time to kill C. formosanus in 2½ months in lab conditions. […]
# Reticulitermes spp. = details: low toxicity baits; cited from earlier work
# C. formosanus [2] = details: low toxicity baits; cited from earlier work
# termites [3] = experiment: Copper naphthenate laboratory study, ARS bait matrix in foraging boxes; assay type: in vivo, Coptotermes formosanus
# Experimental: as §1
# Copper naphthenate (Product No. PS-2028, Chem Service, West Chester, Pa.) was dissolved in 90% warm ethanol at 3 different concentrations of 50, 100 and 200 ppm. The ethanol solution was mixed with the liquid part of the ARS bait matrix (see Example 2) and bait was prepared and presented to the termites as above in Example 1 having 4 repetitions per dose and a control. It was observed that at 50 ppm of chemical, all termites in 50% of the boxes died at about 8 weeks; and termites in 75% of the boxes died at about 10 weeks; at 100 ppm all termites died in the boxes at 8 weeks, and at 200 ppm all termites died in all tested boxes at 8 weeks. All termites in the treatments were dead by week 12.
# termites [4] = details: Grace et al. 1993; cited from earlier work
compound,measurement,setting,value
"O=C1c2cccc3cccc(c23)C(=O)N1[O-].[Na+] [NHA-sodium salt, N-hydroxynaphthyalimide Sodium Salt]",Colonies Alive,"Formosan termites; 250 ppm in bait matrix, 1 Month of feeding",4
same,Colonies Alive,"Formosan termites; 250 ppm in bait matrix, 2 Months of feeding",3
same,Colonies Alive,"Formosan termites; 250 ppm in bait matrix, 2½ Months of feeding",0
same,Colonies Alive,"Formosan termites; 500 ppm in bait matrix, 1 Month of feeding",3
same,Colonies Alive,"Formosan termites; 500 ppm in bait matrix, 2 Months of feeding",1
same,Colonies Alive,"Formosan termites; 500 ppm in bait matrix, 2½ Months of feeding",0
same,repellence to the termites,C. formosanus [1]; 500 ppm,without any signs of repellence
same,time to formosan termite mortality,"C. formosanus [1]; 500 ppm, preliminary results, dose range 50, 250, 500 ppm",within about two months
same,dose at which repellence was observed,C. formosanus [1]; in vivo,higher than 1500 ppm
O=C(NC(=O)c1c(F)cccc1F)Nc1ccc(Cl)cc1 [diflubenzuron],suppressing colonies,Reticulitermes spp.,particularly effective
same,suppressing colonies,C. formosanus [2],particularly effective
O=C(NC(=O)c1c(F)cccc1F)Nc1cc(Cl)c(OC(F)(F)C(F)F)c(Cl)c1 [hexaflumuron],suppressing colonies,Reticulitermes spp.,particularly effective
same,suppressing colonies,C. formosanus [2],particularly effective
Copper naphthenate,week by which all termites in the treatments were dead,"termites [3]; 50, 100 and 200 ppm",≤ 12 week
same,Percent colonies of 2500 termite workers alive,"termites [3]; 50 ppm, 8 wks after treatment",50%
same,Percent colonies of 2500 termite workers alive,"termites [3]; 50 ppm, 10 wks after treatment",25%
same,Percent colonies of 2500 termite workers alive,"termites [3]; 50 ppm, 12 wks after treatment",0%
same,boxes in which all termites died,"termites [3]; 50 ppm, at about 8 weeks",50%
same,boxes in which all termites died,"termites [3]; 50 ppm, at about 10 weeks",75%
same,time at which all termites died in the boxes,termites [3]; 100 ppm,8 weeks
same,Percent colonies of 2500 termite workers alive,"termites [3]; 100 ppm, 8 wks after treatment",0%
same,Percent colonies of 2500 termite workers alive,"termites [3]; 100 ppm, 10 wks after treatment",0%
same,Percent colonies of 2500 termite workers alive,"termites [3]; 100 ppm, 12 wks after treatment",0%
same,time at which all termites died in all tested boxes,termites [3]; 200 ppm,8 weeks
same,acceptance of the bait and time to kill,termites [3]; 200 ppm dose,great variability
same,Percent colonies of 2500 termite workers alive,"termites [3]; 200 ppm, 8 wks after treatment",0%
same,Percent colonies of 2500 termite workers alive,"termites [3]; 200 ppm, 10 wks after treatment",0%
same,Percent colonies of 2500 termite workers alive,"termites [3]; 200 ppm, 12 wks after treatment",0%
same,repellence to termites,termites [4],highly repellent
same,toxicity to termites,termites [4],toxic

# From USRE44543E1, “Naphthalenic compounds as termite bait toxicants” (priority 2002, dated 2013)
